Data taken from the NIST ThermoML archive (doi:10.1016/j.jct.2013.10.034).

Experiment: xn = mol fraction of the nth substance listed
Conditions: 100 kPa, Liquid; for mass density: Vibrating tube method; for viscosity: Falling or rolling sphere viscometry

CCCC[N+]1(C)CCCCC1.N#C[N-]C#N [1-butyl-1-methylpiperidinium dicyanamide] + O
Conditions | mass density [kg/m3] | viscosity [mPa·s]
318.15 K, x1 = 1 | 1005.2 | –
323.15 K, x1 = 0.0936 | 992.05 | 3.072
323.15 K, x1 = 0.1748 | 995.43 | 4.8
323.15 K, x1 = 0.2651 | 997.8 | 7.52
323.15 K, x1 = 0.3581 | 999.24 | 10.45
323.15 K, x1 = 0.4952 | 1000.53 | 14.98
323.15 K, x1 = 0.6246 | 1001.31 | 19.5
323.15 K, x1 = 0.7878 | 1001.95 | 27.35
323.15 K, x1 = 0.9216 | 1002.33 | 35.62
323.15 K, x1 = 1 | 1002.47 | 41.31
328.15 K, x1 = 0.0936 | 988.8 | 2.741
328.15 K, x1 = 0.1748 | 992.22 | 4.249
328.15 K, x1 = 0.2651 | 994.68 | 6.592
328.15 K, x1 = 0.3581 | 996.18 | 9.141
328.15 K, x1 = 0.4952 | 997.63 | 12.99
328.15 K, x1 = 0.6246 | 998.47 | 16.43
328.15 K, x1 = 0.7878 | 999.19 | 23.47
328.15 K, x1 = 0.9216 | 999.6 | 30.08
328.15 K, x1 = 1 | 999.77 | 34.72
333.15 K, x1 = 0.0936 | 985.51 | 2.461
333.15 K, x1 = 0.1748 | 988.96 | 3.788
333.15 K, x1 = 0.2651 | 991.37 | 6.05
333.15 K, x1 = 0.3581 | 993.2 | 8.041
333.15 K, x1 = 0.4952 | 994.75 | 11.37
333.15 K, x1 = 0.6246 | 995.66 | 13.93
333.15 K, x1 = 0.7878 | 996.46 | 20.41
333.15 K, x1 = 0.9216 | 996.9 | 25.64
333.15 K, x1 = 1 | 997.08 | 29.45
338.15 K, x1 = 0.0936 | 982.59 | 2.223
338.15 K, x1 = 0.1748 | 985.7 | 3.407
338.15 K, x1 = 0.2651 | 988.38 | 5.181
338.15 K, x1 = 0.3581 | 990.24 | 7.12
338.15 K, x1 = 0.4952 | 991.9 | 10.04
338.15 K, x1 = 0.6246 | 992.85 | 12.9
338.15 K, x1 = 0.7878 | 993.65 | 17.17
338.15 K, x1 = 0.9216 | 994.16 | 21.35
338.15 K, x1 = 1 | 994.39 | –
343.15 K, x1 = 0.0936 | 979.99 | 2.021
343.15 K, x1 = 0.1748 | 982.41 | 3.088
343.15 K, x1 = 0.2651 | 984.88 | 4.682
343.15 K, x1 = 0.3581 | 986.93 | 6.355
343.15 K, x1 = 0.4952 | 988.84 | 8.928
343.15 K, x1 = 0.6246 | 990.06 | 11.72
343.15 K, x1 = 0.7878 | 990.92 | 15.74
343.15 K, x1 = 0.9216 | 991.45 | 19.52
343.15 K, x1 = 1 | 991.72 | 21.98
